Test results published in ChEMBL document CHEMBL5029145, “Discovery of AZD8154, a Dual PI3Kγδ Inhibitor for the Treatment of Asthma” (J Med Chem, 2021).
≈ marks a conversion by molar mass, not a printed value. Calls of active or inactive are those of the source. The rule behind the calls is not given here.

Columns and labels:
[1] = Half life in rat plasma at 0.5 mg/kg, iv; type: ADME, organism-based
[2] = Distribution coefficient, logD of compound at pH 7.4; type: physicochemical; conditions: octanol/water
[3] = Oral bioavailability in rat at 1.0 mg/kg; type: ADME, organism-based; conditions: in vivo
[4] = biological target: Phosphatidylinositol 4,5-bisphosphate 3-kinase catalytic subunit alpha isoform (Homo sapiens, UniProt P42336); assay: Inhibition of recombinant human PI3Kalpha assessed as reduction in ADP production using Dic8-PIP2 as substrate pre-treated for 15 mins followed by substrate addition measured after 60 mins by ADP-glo assay
[5] = biological target: T1, Phosphatidylinositol 4,5-bisphosphate 3-kinase catalytic subunit delta isoform/gamma isoform (Homo sapiens) (UniProt P48736+O00329); assay: Inhibition of PI3kgamma/delta in anti-CD2/3/28-stimulated human PBMC cells derived from asthmatic patient assessed as reduction in IL-5 release pre-incubated for 1 hr followed by anti-CD2/3/28 stimulation measured after 24 hrs by flow cytometry; type: cell-based; conditions: time 25.0 hrs
Rattus norvegicus [6] = assay: Antiinflammatory activity in ovalbumin induced Brown Norway rat assessed as reduction in eosinophil counts in lung lavage fluid at 240 microg/kg administered using nebulizer for 24 hrs prior to ovalbumin challenge measured after 48 hrs by flow cytometry; type: functional, organism-based; conditions: dose 240.0 µg/kg, time 72.0 hrs
[7] = biological target: Phosphatidylinositol 4-phosphate 3-kinase C2 domain-containing subunit alpha (Homo sapiens, UniProt O00443); assay: Inhibition of PIK3C2A (unknown origin) assessed as reduction in substrate phosphorylation by FRET Adapta assay
[8] = biological target: T1, Phosphatidylinositol 4,5-bisphosphate 3-kinase catalytic subunit delta isoform/gamma isoform (Homo sapiens); assay: Inhibition of PI3kgamma/delta in eotaxin-3-stimulated human eosinophils derived from asthmatic patient assessed as reduction in CD11b expression pre-incubated for 30 mins followed by eotaxin-3 stimulation for 30 mins by flow cytometry; type: tissue-based; conditions: Eosinophil, time 60.0 min
Rattus norvegicus [9] = assay: Antiinflammatory activity in ovalbumin-induced Brown Norway rat assessed as reduction in eosinophil counts in bronchoalveolar lavage at 240 microg/kg inhaled using nebulizer 7 hrs prior to ovalbumin challenge measured after 48 hrs by flow cytometry; type: functional, organism-based; conditions: dose 240.0 µg/kg, time 55.0 hrs
Rattus norvegicus [10] = assay: Antiinflammatory activity in ovalbumin induced Brown Norway rat assessed as reduction in eosinophil counts in lung lavage fluid at 240 microg/kg administered using nebulizer for 12 hrs prior to ovalbumin challenge measured after 48 hrs by flow cytometry; type: functional, organism-based; conditions: dose 240.0 µg/kg, time 60.0 hrs
[11] = Thermodynamic stability assessed as onset melting temperature; type: physicochemical
[12] = Clearance in rat at 0.5 mg/kg, iv; type: ADME, organism-based; conditions: in vivo
[13] = biological target: Phosphatidylinositol 4-phosphate 3-kinase C2 domain-containing subunit beta (Homo sapiens, UniProt O00750); assay: Inhibition of PIK3C2B (unknown origin) assessed as reduction in substrate phosphorylation by FRET Adapta assay
[14] = biological target: T1, Phosphatidylinositol 4,5-bisphosphate 3-kinase catalytic subunit delta isoform/gamma isoform (Homo sapiens); assay: Inhibition of PI3kgamma/delta in anti-CD2/3/28-stimulated human PBMC cells derived from asthmatic patient assessed as reduction in IL-17 release pre-incubated for 1 hr followed by anti-CD2/3/28 stimulation measured after 24 hrs by flow cytometry; type: cell-based; conditions: time 25.0 hrs
[15] = biological target: T2, Phosphatidylinositol 4,5-bisphosphate 3-kinase catalytic subunit delta isoform (Homo sapiens, UniProt O00329); assay: Inhibition of recombinant human PI3Kdelta assessed as reduction in ADP production using Dic8-PIP2 as substrate pre-treated for 15 mins followed by substrate addition measured after 60 mins by ADP-glo assay
T2 sequence (O00329 whole entry): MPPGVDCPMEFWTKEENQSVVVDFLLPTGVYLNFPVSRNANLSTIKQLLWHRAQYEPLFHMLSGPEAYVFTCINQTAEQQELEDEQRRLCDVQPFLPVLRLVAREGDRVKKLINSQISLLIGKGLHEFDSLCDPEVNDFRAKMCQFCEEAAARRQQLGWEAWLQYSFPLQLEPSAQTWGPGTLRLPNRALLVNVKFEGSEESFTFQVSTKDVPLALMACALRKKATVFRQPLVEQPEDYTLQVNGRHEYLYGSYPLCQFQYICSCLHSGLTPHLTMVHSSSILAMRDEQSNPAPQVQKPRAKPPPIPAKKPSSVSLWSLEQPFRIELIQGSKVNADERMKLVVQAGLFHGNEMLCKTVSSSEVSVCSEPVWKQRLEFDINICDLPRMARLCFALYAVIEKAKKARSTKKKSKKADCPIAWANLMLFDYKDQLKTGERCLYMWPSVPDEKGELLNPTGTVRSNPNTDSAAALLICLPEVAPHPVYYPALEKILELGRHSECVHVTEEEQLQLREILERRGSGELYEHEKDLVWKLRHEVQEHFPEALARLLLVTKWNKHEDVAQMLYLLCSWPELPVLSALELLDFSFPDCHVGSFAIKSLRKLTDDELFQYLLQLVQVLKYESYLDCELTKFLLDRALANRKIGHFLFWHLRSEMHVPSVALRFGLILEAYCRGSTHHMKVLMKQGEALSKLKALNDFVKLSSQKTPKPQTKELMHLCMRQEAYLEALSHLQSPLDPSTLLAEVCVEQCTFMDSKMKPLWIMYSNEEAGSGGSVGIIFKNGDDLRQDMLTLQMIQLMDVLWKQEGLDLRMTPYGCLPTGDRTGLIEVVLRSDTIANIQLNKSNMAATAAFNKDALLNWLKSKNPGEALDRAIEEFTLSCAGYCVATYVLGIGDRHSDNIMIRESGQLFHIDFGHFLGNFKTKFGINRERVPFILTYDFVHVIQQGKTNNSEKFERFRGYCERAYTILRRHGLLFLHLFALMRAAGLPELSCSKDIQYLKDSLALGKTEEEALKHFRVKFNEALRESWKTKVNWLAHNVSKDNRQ

[16] = Apparent permeability in human Caco2 cells; type: ADME, cell-based; conditions: caco-2
[17] = biological target: Phosphatidylinositol 3-kinase catalytic subunit type 3 (Homo sapiens, UniProt Q8NEB9); assay: Inhibition of PIK3C3 (unknown origin) assessed as reduction in substrate phosphorylation by FRET Adapta assay
[18] = biological target: Phosphatidylinositol 4-kinase alpha (Homo sapiens, UniProt P42356); assay: Inhibition of PI4KA (unknown origin) assessed as reduction in substrate phosphorylation by FRET Adapta assay
[19] = Solubility of compound in at pH 7.4 at 1 mg/ml using crystalline form of sample incubated for 24 hrs by HPLC MS analysis; type: physicochemical
[20] = Permeability in human Caco2 cells; type: ADME, cell-based; conditions: caco-2
[21] = biological target: T2, Phosphatidylinositol 4,5-bisphosphate 3-kinase catalytic subunit delta isoform; assay: Inhibition of PI3Kdelta in anti-IgM-stimulated human JeKo-1 cells assessed as inhibition of AKT phosphorylation at Ser473 residue incubated for 60 mins by TR-FRET assay

T1 sequence (P48736 whole entry, looked up, one chain of several, canonical isoform): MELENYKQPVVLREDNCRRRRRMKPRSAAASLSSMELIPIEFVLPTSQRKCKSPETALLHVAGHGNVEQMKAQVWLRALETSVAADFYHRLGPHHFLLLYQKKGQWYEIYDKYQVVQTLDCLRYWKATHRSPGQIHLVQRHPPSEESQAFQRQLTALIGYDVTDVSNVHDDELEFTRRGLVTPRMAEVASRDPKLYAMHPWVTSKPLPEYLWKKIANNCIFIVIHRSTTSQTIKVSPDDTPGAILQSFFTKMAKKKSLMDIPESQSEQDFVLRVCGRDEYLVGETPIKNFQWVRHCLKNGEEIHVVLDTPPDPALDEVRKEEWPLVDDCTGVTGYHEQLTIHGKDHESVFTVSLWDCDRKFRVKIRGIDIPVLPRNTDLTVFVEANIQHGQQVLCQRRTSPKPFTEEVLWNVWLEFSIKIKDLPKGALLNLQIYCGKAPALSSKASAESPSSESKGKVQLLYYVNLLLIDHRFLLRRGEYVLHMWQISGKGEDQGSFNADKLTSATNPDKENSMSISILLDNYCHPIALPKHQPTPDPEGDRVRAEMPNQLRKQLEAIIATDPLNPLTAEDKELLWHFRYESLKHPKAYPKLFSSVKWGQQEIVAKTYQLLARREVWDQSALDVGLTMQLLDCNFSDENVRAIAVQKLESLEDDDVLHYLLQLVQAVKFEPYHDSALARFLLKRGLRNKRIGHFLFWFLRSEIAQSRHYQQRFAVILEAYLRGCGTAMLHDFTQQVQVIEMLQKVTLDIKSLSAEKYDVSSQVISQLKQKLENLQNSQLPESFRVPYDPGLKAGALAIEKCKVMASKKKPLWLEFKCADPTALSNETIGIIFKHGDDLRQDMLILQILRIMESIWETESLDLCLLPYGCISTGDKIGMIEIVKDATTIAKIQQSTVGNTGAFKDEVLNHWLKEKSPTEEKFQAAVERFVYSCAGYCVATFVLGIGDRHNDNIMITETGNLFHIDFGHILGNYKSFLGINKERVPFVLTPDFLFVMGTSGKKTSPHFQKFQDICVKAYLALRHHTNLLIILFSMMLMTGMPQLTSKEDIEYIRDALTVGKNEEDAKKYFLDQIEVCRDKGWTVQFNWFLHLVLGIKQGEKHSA
Chain of Phosphatidylinositol 4-phosphate 3-kinase C2 domain-containing subunit alpha (O00443 whole entry, the tested form may be a part, canonical isoform): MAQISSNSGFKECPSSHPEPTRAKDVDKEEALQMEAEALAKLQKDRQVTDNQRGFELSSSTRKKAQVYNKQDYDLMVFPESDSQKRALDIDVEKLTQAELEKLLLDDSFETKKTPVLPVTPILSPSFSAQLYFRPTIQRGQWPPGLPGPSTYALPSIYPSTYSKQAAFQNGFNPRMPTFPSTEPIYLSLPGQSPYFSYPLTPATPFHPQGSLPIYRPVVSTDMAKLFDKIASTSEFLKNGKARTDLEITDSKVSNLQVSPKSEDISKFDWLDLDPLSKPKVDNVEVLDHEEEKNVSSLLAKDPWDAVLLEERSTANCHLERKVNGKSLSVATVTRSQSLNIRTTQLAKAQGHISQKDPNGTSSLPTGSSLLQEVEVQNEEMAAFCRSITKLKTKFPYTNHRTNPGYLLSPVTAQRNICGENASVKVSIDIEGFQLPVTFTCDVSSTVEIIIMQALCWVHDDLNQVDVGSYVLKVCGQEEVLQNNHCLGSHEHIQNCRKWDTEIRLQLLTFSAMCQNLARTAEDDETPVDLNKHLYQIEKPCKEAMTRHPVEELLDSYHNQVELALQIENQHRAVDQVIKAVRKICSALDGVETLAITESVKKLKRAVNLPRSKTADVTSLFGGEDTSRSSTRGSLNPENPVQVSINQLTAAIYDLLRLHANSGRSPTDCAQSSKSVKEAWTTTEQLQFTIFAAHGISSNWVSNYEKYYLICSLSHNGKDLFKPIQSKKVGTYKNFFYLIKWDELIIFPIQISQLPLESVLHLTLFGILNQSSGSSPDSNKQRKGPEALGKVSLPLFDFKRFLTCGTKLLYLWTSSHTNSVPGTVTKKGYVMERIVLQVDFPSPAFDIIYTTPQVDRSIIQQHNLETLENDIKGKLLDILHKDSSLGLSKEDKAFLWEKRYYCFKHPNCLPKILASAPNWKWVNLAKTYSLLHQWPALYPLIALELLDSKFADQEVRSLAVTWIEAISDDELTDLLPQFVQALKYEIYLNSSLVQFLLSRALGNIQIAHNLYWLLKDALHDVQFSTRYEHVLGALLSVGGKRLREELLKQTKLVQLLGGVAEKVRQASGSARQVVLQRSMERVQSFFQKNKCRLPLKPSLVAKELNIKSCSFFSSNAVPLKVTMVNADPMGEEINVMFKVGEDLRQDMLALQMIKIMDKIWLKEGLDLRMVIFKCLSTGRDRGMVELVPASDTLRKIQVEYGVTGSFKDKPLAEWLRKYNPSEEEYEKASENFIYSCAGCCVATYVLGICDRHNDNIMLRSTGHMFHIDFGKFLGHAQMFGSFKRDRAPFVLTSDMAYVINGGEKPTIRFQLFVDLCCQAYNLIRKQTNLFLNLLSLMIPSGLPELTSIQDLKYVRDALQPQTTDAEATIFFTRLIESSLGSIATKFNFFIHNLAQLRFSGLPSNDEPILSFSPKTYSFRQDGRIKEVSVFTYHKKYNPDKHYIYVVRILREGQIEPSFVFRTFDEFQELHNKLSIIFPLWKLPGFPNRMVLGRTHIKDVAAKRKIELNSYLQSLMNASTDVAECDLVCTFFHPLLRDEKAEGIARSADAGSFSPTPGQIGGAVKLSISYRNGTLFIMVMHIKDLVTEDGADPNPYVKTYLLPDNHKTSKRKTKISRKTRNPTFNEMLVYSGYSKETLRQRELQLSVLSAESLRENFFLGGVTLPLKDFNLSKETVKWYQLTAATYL
Chain of Phosphatidylinositol 3-kinase catalytic subunit type 3 (Q8NEB9 whole entry): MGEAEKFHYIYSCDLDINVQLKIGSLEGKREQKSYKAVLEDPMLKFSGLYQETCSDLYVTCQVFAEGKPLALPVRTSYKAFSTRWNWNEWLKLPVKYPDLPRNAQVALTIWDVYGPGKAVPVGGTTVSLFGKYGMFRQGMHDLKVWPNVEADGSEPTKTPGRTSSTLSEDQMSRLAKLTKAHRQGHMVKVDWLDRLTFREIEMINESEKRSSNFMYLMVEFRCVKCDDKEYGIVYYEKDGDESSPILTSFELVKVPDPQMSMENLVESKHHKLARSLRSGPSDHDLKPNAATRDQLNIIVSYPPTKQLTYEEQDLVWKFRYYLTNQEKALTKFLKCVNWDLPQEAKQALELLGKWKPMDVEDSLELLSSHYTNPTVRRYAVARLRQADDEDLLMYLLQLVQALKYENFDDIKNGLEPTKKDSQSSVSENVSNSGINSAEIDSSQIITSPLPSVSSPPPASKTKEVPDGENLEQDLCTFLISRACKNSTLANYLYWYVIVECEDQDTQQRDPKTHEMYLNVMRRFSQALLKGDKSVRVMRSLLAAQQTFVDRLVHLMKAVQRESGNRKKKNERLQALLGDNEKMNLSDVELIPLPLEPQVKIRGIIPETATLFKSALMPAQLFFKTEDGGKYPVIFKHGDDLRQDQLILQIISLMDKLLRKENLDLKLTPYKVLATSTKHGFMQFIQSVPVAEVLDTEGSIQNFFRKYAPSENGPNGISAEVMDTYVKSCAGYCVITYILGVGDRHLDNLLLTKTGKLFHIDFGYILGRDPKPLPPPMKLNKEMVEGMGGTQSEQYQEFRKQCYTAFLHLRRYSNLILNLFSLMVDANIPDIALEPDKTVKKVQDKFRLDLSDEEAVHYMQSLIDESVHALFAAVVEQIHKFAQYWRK
Chain of Phosphatidylinositol 4,5-bisphosphate 3-kinase catalytic subunit alpha isoform (P42336 whole entry, canonical isoform): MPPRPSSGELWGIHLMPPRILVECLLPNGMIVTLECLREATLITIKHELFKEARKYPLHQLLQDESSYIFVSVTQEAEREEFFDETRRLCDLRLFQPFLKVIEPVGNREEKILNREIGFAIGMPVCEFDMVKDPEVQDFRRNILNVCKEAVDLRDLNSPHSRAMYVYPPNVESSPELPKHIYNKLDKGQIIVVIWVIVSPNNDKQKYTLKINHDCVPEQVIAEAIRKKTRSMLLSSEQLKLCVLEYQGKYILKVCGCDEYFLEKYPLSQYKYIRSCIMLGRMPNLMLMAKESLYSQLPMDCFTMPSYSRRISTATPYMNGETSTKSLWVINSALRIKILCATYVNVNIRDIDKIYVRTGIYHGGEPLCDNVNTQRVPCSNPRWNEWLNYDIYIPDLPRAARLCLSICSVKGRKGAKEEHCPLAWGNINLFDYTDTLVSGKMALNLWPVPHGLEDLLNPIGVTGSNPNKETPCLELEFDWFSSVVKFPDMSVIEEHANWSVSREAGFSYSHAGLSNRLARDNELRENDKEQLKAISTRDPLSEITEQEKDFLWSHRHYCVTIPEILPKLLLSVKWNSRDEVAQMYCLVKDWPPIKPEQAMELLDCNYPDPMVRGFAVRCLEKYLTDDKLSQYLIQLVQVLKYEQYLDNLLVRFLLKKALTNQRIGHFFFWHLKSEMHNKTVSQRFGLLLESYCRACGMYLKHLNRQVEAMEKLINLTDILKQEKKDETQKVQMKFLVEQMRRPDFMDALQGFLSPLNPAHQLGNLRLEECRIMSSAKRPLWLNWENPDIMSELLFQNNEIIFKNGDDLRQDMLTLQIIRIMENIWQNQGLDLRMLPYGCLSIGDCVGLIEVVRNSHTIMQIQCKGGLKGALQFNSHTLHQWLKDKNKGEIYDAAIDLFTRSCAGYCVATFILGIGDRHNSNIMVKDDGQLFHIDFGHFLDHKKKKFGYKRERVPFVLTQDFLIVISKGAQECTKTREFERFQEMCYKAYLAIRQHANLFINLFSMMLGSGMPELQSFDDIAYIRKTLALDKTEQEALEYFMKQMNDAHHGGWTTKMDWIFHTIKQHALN

half-life [1]: 2.9 h
logD [2]: 4.4
bioavailability [3]: < 4%
IC50 [4]: 63.1 nM
Activity [5]: Active
IC50 [7]: 3980 nM
Activity [8]: Active
Tm [11]: 285 °C
clearance [12]: 20 mL/min/kg
IC50 [13]: 3.16 nM
Activity [14]: Active
IC50 [15]: 0.631 nM
Papp [16]: Impermeable
IC50 [17]: 501 nM
IC50 [18]: > 10000 nM
solubility thermodynamic at 24 h [19]: 0.054 µM (≈ 0.0298 µg/mL)
permeability [20]: Permeable
IC50 [21]: 3.98 nM
Compound: Cc1nc(Nc2cccc(N3CCCC3=O)n2)sc1-c1cc2c(c(S(C)(=O)=O)c1)C(=O)N([C@@H](C)C1CC1)C2 [AZD-8154]
Activity (Rattus norvegicus [6]): inactive
Activity (Rattus norvegicus [9]): Active
Activity (Rattus norvegicus [10]): inactive
